Source: PubChem BioAssay (NCI)
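Method: 48-hour compound exposure of cells in 96-well plates, five concentrations, linear interpolation of endpoints. At the GI50, growth is halved. TGI is the concentration that stops growth completely.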

Columns and labels:
Experiment in all cases: NCI tumour cell line growth inhibition, 48 h
786-0 renal = system: 786-0 renal
A498 renal = system: A498 renal
A549 NSCLC = system: A549 NSCLC
ACHN renal = system: ACHN renal
BT-549 breast = system: BT-549 breast
CAKI-1 renal = system: CAKI-1 renal
CCRF-CEM leukemia = system: CCRF-CEM leukemia
COLO 205 colon = system: COLO 205 colon
DU-145 prostate = system: DU-145 prostate
EKVX NSCLC = system: EKVX NSCLC
HCC-2998 colon = system: HCC-2998 colon
HCT-116 colon = system: HCT-116 colon
HCT-15 colon = system: HCT-15 colon
HL-60(TB) leukemia = system: HL-60(TB) leukemia
HOP-62 NSCLC = system: HOP-62 NSCLC
HOP-92 NSCLC = system: HOP-92 NSCLC
HS 578T breast = system: HS 578T breast
HT29 colon = system: HT29 colon
IGROV1 ovarian = system: IGROV1 ovarian
K-562 leukemia = system: K-562 leukemia
KM12 colon = system: KM12 colon
LOX IMVI melanoma = system: LOX IMVI melanoma
M14 melanoma = system: M14 melanoma
MALME-3M melanoma = system: MALME-3M melanoma
MCF7 breast = system: MCF7 breast
MDA-MB-231 breast = system: MDA-MB-231 breast
MDA-MB-435 = system: MDA-MB-435
NCI-H226 lung = system: NCI-H226 lung
NCI-H23 lung = system: NCI-H23 lung
NCI-H460 lung = system: NCI-H460 lung
NCI-H522 lung = system: NCI-H522 lung
NCI/ADR-RES ovarian = system: NCI/ADR-RES ovarian
OVCAR-3 ovarian = system: OVCAR-3 ovarian
OVCAR-4 ovarian = system: OVCAR-4 ovarian
OVCAR-5 ovarian = system: OVCAR-5 ovarian
OVCAR-8 ovarian = system: OVCAR-8 ovarian
PC-3 prostate = system: PC-3 prostate
RPMI-8226 leukemia = system: RPMI-8226 leukemia
SF-268 CNS = system: SF-268 CNS
SF-295 CNS = system: SF-295 CNS
SF-539 CNS = system: SF-539 CNS
SK-MEL-2 melanoma = system: SK-MEL-2 melanoma
SK-MEL-28 melanoma = system: SK-MEL-28 melanoma
SK-MEL-5 melanoma = system: SK-MEL-5 melanoma
SK-OV-3 ovarian = system: SK-OV-3 ovarian
SN12C renal = system: SN12C renal
SNB-19 CNS = system: SNB-19 CNS
SNB-75 CNS = system: SNB-75 CNS
SR leukemia = system: SR leukemia
SW-620 colon = system: SW-620 colon
T-47D breast = system: T-47D breast
TK-10 renal = system: TK-10 renal
U251 CNS = system: U251 CNS
UACC-257 melanoma = system: UACC-257 melanoma
UACC-62 melanoma = system: UACC-62 melanoma
UO-31 renal = system: UO-31 renal

O=C1C=C(NCCNC(=S)Nc2ccccc2)c2nccc3c2c1nc1ccccc13
GI50 (786-0 renal): 94.5 µM
TGI (786-0 renal): > 100 µM
GI50 (A498 renal): > 100 µM
TGI (A498 renal): > 100 µM
GI50 (A549 NSCLC): 44.7 µM
TGI (A549 NSCLC): > 100 µM
GI50 (ACHN renal): 38.6 µM
TGI (ACHN renal): > 100 µM
GI50 (BT-549 breast): 70.1 µM
TGI (BT-549 breast): > 100 µM
GI50 (CAKI-1 renal): 33.6 µM
TGI (CAKI-1 renal): > 100 µM
GI50 (CCRF-CEM leukemia): > 100 µM
TGI (CCRF-CEM leukemia): > 100 µM
GI50 (COLO 205 colon): 9.18 µM
TGI (COLO 205 colon): > 100 µM
GI50 (DU-145 prostate): 39.8 µM
TGI (DU-145 prostate): > 100 µM
GI50 (EKVX NSCLC): > 100 µM
TGI (EKVX NSCLC): > 100 µM
GI50 (HCC-2998 colon): 17.6 µM
TGI (HCC-2998 colon): > 100 µM
GI50 (HCT-116 colon): 14 µM
TGI (HCT-116 colon): > 100 µM
GI50 (HCT-15 colon): 34.9 µM
TGI (HCT-15 colon): > 100 µM
GI50 (HL-60(TB) leukemia): 17.4 µM
TGI (HL-60(TB) leukemia): > 100 µM
GI50 (HOP-62 NSCLC): 81.7 µM
TGI (HOP-62 NSCLC): > 100 µM
GI50 (HOP-92 NSCLC): > 100 µM
TGI (HOP-92 NSCLC): > 100 µM
GI50 (HS 578T breast): > 100 µM
TGI (HS 578T breast): > 100 µM
GI50 (HT29 colon): 44.6 µM
TGI (HT29 colon): > 100 µM
GI50 (IGROV1 ovarian): 56.8 µM
TGI (IGROV1 ovarian): > 100 µM
GI50 (K-562 leukemia): 35.1 µM
TGI (K-562 leukemia): > 100 µM
GI50 (KM12 colon): 41.2 µM
TGI (KM12 colon): > 100 µM
GI50 (LOX IMVI melanoma): 31.5 µM
TGI (LOX IMVI melanoma): > 100 µM
GI50 (M14 melanoma): 39.3 µM
TGI (M14 melanoma): > 100 µM
GI50 (MALME-3M melanoma): 30.1 µM
TGI (MALME-3M melanoma): > 100 µM
GI50 (MCF7 breast): 23.3 µM
TGI (MCF7 breast): > 100 µM
GI50 (MDA-MB-231 breast): 94.5 µM
TGI (MDA-MB-231 breast): > 100 µM
GI50 (MDA-MB-435): 15.6 µM
TGI (MDA-MB-435): 47.7 µM
GI50 (NCI-H226 lung): 70 µM
TGI (NCI-H226 lung): > 100 µM
GI50 (NCI-H23 lung): 31.5 µM
TGI (NCI-H23 lung): > 100 µM
GI50 (NCI-H460 lung): 29.4 µM
TGI (NCI-H460 lung): > 100 µM
GI50 (NCI-H522 lung): 46.8 µM
TGI (NCI-H522 lung): > 100 µM
GI50 (NCI/ADR-RES ovarian): > 100 µM
TGI (NCI/ADR-RES ovarian): > 100 µM
GI50 (OVCAR-3 ovarian): 18.1 µM
TGI (OVCAR-3 ovarian): > 100 µM
GI50 (OVCAR-4 ovarian): 92.7 µM
TGI (OVCAR-4 ovarian): > 100 µM
GI50 (OVCAR-5 ovarian): > 100 µM
TGI (OVCAR-5 ovarian): > 100 µM
GI50 (OVCAR-8 ovarian): > 100 µM
TGI (OVCAR-8 ovarian): > 100 µM
GI50 (PC-3 prostate): > 100 µM
TGI (PC-3 prostate): > 100 µM
GI50 (RPMI-8226 leukemia): 74.6 µM
TGI (RPMI-8226 leukemia): > 100 µM
GI50 (SF-268 CNS): 53.7 µM
TGI (SF-268 CNS): > 100 µM
GI50 (SF-295 CNS): 39.7 µM
TGI (SF-295 CNS): > 100 µM
GI50 (SF-539 CNS): 49.1 µM
TGI (SF-539 CNS): > 100 µM
GI50 (SK-MEL-2 melanoma): > 100 µM
TGI (SK-MEL-2 melanoma): > 100 µM
GI50 (SK-MEL-28 melanoma): > 100 µM
TGI (SK-MEL-28 melanoma): > 100 µM
GI50 (SK-MEL-5 melanoma): 27.5 µM
TGI (SK-MEL-5 melanoma): > 100 µM
GI50 (SK-OV-3 ovarian): > 100 µM
TGI (SK-OV-3 ovarian): > 100 µM
GI50 (SN12C renal): 23.5 µM
TGI (SN12C renal): > 100 µM
GI50 (SNB-19 CNS): > 100 µM
TGI (SNB-19 CNS): > 100 µM
GI50 (SNB-75 CNS): > 100 µM
TGI (SNB-75 CNS): > 100 µM
GI50 (SR leukemia): 2970 nM
TGI (SR leukemia): > 100 µM
GI50 (SW-620 colon): 32.2 µM
TGI (SW-620 colon): > 100 µM
GI50 (T-47D breast): > 100 µM
TGI (T-47D breast): > 100 µM
GI50 (TK-10 renal): 51.9 µM
TGI (TK-10 renal): > 100 µM
GI50 (U251 CNS): 58.9 µM
TGI (U251 CNS): > 100 µM
GI50 (UACC-257 melanoma): 93.2 µM
TGI (UACC-257 melanoma): > 100 µM
GI50 (UACC-62 melanoma): 20.6 µM
TGI (UACC-62 melanoma): 73 µM
GI50 (UO-31 renal): > 100 µM
TGI (UO-31 renal): > 100 µM
